The text below walks through data of patent US11731986B2 (Sanford Burnham Prebys Medical Discovery Institute, priority 2017, dated 2023).

Each structure is given as a SMILES string.

For this experiment, the target named is T1, human LMPTP-A (Homo sapiens, UniProt P24666).
T1 sequence (P24666 1-158): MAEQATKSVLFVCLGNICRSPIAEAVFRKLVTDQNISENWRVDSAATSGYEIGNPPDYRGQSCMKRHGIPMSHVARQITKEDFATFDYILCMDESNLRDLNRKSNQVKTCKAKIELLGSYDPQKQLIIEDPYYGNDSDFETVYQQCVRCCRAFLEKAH
As to the kind of experiment: Enzyme Assay of Inhibition of LMPTP-A (phosphatase assay, OMFP or pNPP substrate). It counts as biochemical. The settings on record: Bis-Tris pH 6.0, 37° C. In short, it runs like this: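 Buffer 50 mM Bis-Tris pH 6.0, 1 mM DTT, 0.01% Triton X-100, 37 °C; OMFP read continuously (485/525 nm) or pNPP stopped with NaOH, 405 nm. IC50 from concentration vs % activity. Selectivity: 40 μM compound with 0.4 mM OMFP or 5 mM pNPP; reversibility: 50 nM enzyme, 10 μM compound, 5 min, 100× dilution.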

What is called IC50 is the concentration that inhibits the measured activity by half. Low values mean greater potency, high ones weaker potency. For the compound `CCN(CC)C(=O)c1nc2cc(-c3cc(NCCCN4CCCCC4)c4cnccc4n3)ccc2[nH]1` [N,N-diethyl-5-(4-((3-(piperidin-1-yl)propyl)amino)-1,6-naphthyridin-2-yl)-1H-benzo[d]imidazole-2-carboxamide], the IC50 lay in the range of 1 to 20 µM.

As to `CCN(CC)C(=O)c1cc2ccc(-c3cc(NCCCN4CCCCC4)c4cnccc4n3)cc2s1` [N,N-diethyl-6-(4-(3-(piperidin-1-yl)propylamino)-1,6-naphthyridin-2-yl)benzo[b]thiophene-2-carboxamide], the IC50 is ≤ 1 µM.

Take `Cn1c(C(=O)NC2CCS(=O)(=O)CC2)cc2cc(-c3cc(NCCCN4CCCCC4)c4cnccc4n3)ccc21` [N-(1,1-dioxidotetrahydro-2H-thiopyran-4-yl)-1-methyl-5-(4-((3-(piperidin-1-yl)propyl)amino)-1,6-naphthyridin-2-yl)-1H-indole-2-carboxamide]: the IC50 was ≤ 1 µM.

For `CN1CCC(NC(=O)CCc2ccc(-c3cc(NC4CCN(C)CC4)c4cnccc4n3)cc2)CC1` [N-(1-Methylpiperidin-4-yl)-3-(4-(4-(1-methylpiperidin-4-ylamino)-1,6-naphthyridin-2-yl)phenyl)propanamide], the IC50 is ≤ 1 µM.

With `CN1CCC(NC(=O)CCOCc2ccc(-c3cc(NCCCN4CCCCC4)c4cnccc4n3)cc2)CC1` [N-(1-Methylpiperidin-4-yl)-3-(4-(4-(3-(piperidin-1-yl)propylamino)-1,6-naphthyridin-2-yl)benzyloxy)propanamide], the IC50 was ≤ 1 µM.

The compound `CN1CCC(NC(=O)c2ccc(-c3cc(NC4CCN(C)CC4)c4cnccc4n3)cc2)CC1` [N-(1-Methylpiperidin-4-yl)-4-(4-((1-methylpiperidin-4-yl)amino)-1,6-naphthyridin-2-yl)benzamide] yielded an IC50 of 1 to 20 µM.

`CN1CCC(NC(=O)c2ccc(-c3cc(NC4CCN(C)C4)c4cnccc4n3)cc2)CC1` (centres unmarked) [N-(1-Methylpiperidin-4-yl)-4-(4-((1-methylpyrrolidin-3-yl)amino)-1,6-naphthyridin-2-yl)benzamide]: the IC50 was 1 to 20 µM.

For `CN1CCC(NC(=O)c2ccc(-c3cc(NC4CCOCC4)c4cnccc4n3)cc2)CC1` [N-(1-Methylpiperidin-4-yl)-4-(4-((tetrahydro-2H-pyran-4-yl)amino)-1,6-naphthyridin-2-yl)benzamide], the IC50 is ≤ 1 µM.

In turn, `CN1CCC(NC(=O)c2ccc(-c3cc(NC4CCNCC4)c4cnccc4n3)cc2)CC1` [N-(1-Methylpiperidin-4-yl)-4-(4-(piperidin-4-ylamino)-1,6-naphthyridin-2-yl)benzamide] came in with an IC50 of 1 to 20 µM.

`CN1CCC(NC(=O)c2ccc(-c3cc(NC4CCNC4)c4cnccc4n3)cc2)CC1` (centres unmarked) [N-(1-Methylpiperidin-4-yl)-4-(4-(pyrrolidin-3-ylamino)-1,6-naphthyridin-2-yl)benzamide] displayed a 50% inhibitory concentration (IC50) of 1 to 20 µM.

Turning to `CN1CCC(NC(=O)c2cc3ccc(-c4cc(NCCCN5CCCCC5)c5cnccc5n4)cc3[nH]2)CC1` [N-(1-Methylpiperidin-4-yl)-6-(4-(3-(piperidin-1-yl)propylamino)-1,6-naphthyridin-2-yl)-1H-indole-2-carboxamide], the IC50 lay within 1 to 20 µM.

As for `CN1CCC(NC(=O)c2nc3cc(-c4cc(NCCCN5CCCCC5)c5cnccc5n4)cnc3[nH]2)CC1` [N-(1-Methylpiperidin-4-yl)-6-(4-(3-(piperidin-1-yl)propylamino)-1,6-naphthyridin-2-yl)-3H-imidazo[4,5-b]pyridine-2-carboxamide], the IC50 is ≤ 1 µM.

`CCN1CCC(NC(=O)c2cc3ccc(-c4cc(NCCCN5CCCCC5)c5cnccc5n4)cc3s2)CC1` [N-(1-ethylpiperidin-4-yl)-6-(4-(3-(piperidin-1-yl)propylamino)-1,6-naphthyridin-2-yl)benzo[b]thiophene-2-carboxamide]: the half-inhibitory concentration (IC50) is ≤ 1 µM.

On to `CN1CCC(NC(=O)COc2ccc(-c3cc(NCCCN4CCCCC4)c4cnccc4n3)cc2)CC1` [N-(1-methylpiperidin-4-yl)-2-(4-(4-(3-(piperidin-1-yl)propylamino)-1,6-naphthyridin-2-yl)phenoxy)acetamide], for which the concentration for half-maximal inhibition (IC50) was ≥ 20 µM.

As for `CN1CCC(NC(=O)COCc2ccc(-c3cc(NCCCN4CCCCC4)c4cnccc4n3)cc2)CC1` [N-(1-methylpiperidin-4-yl)-2-((4-(4-((3-(piperidin-1-yl)propyl)amino)-1,6-naphthyridin-2-yl)benzyl)oxy)acetamide], the IC50 was ≤ 1 µM.

`CN1CCC(NC(=O)CCOc2ccc(-c3cc(NCCCN4CCCCC4)c4cnccc4n3)cc2)CC1` [N-(1-methylpiperidin-4-yl)-3-(4-(4-((3-(piperidin-1-yl)propyl)amino)-1,6-naphthyridin-2-yl)phenoxy)propanamide]: the concentration for half-maximal inhibition (IC50) was ≥ 20 µM.

Consider `CN1CCC(NC(=O)c2ccc(-c3cc(NCCCN4CCCCC4)c4cnccc4n3)cn2)CC1` [N-(1-methylpiperidin-4-yl)-5-(4-((3-(piperidin-1-yl)propyl)amino)-1,6-naphthyridin-2-yl)picolinamide], for which the IC50 was in the range of 1 to 20 µM.

As to `CN1CCC(NC(=O)c2cc3ccc(-c4cc(NCCCN5CCCCC5)c5cnccc5n4)cc3s2)CC1` [N-(1-methylpiperidin-4-yl)-6-(4-(3-(piperidin-1-yl)propylamino)-1,6-naphthyridin-2-yl)benzo[b]thiophene-2-carboxamide], the IC50 is ≤ 1 µM.

For the compound `CN1CCC(CCNC(=O)CCc2ccc(-c3cc(NCCCN4CCCCC4)c4cnccc4n3)cc2)CC1` [N-(2-(1-Methylpiperidin-4-yl)ethyl)-3-(4-(4-(3-(piperidin-1-yl)propylamino)-1,6-naphthyridin-2-yl)phenyl)propanamide], the IC50 was ≤ 1 µM.

For the compound `CN1CCC(CCNC(=O)COCc2ccc(-c3cc(NCCCN4CCCCC4)c4cnccc4n3)cc2)CC1` [N-(2-(1-methylpiperidin-4-yl)ethyl)-2-(4-(4-(3-(piperidin-1-yl)propylamino)-1,6-naphthyridin-2-yl)benzyloxy)acetamide], the IC50 is ≤ 1 µM.

In the case of `CN1CCC(CCNC(=O)C#Cc2ccc(-c3cc(NCCCN4CCCCC4)c4cnccc4n3)cc2)CC1` [N-(2-(1-methylpiperidin-4-yl)ethyl)-3-(4-(4-((3-(piperidin-1-yl)propyl)amino)-1,6-naphthyridin-2-yl)phenyl)propiolamide], the IC50 fell in the range of 1 to 20 µM.

For `CN1CCCN(CCNC(=O)CCc2ccc(-c3cc(NCCCN4CCCCC4)c4cnccc4n3)cc2)CC1` [N-(2-(4-Methyl-1,4-diazepan-1-yl)ethyl)-3-(4-(4-(3-(piperidin-1-yl)propylamino)-1,6-naphthyridin-2-yl)phenyl)propanamide], the IC50 is ≤ 1 µM.

On to `CN1CCCN(CCNC(=O)COCc2ccc(-c3cc(NCCCN4CCCCC4)c4cnccc4n3)cc2)CC1` [N-(2-(4-methyl-1,4-diazepan-1-yl)ethyl)-2-(4-(4-(3-(piperidin-1-yl)propylamino)-1,6-naphthyridin-2-yl)benzyloxy)acetamide], for which the IC50 was ≤ 1 µM.

Compound `CN(C)CCNC(=O)c1cc2ccc(-c3cc(NCCCN4CCCCC4)c4cnccc4n3)cc2[nH]1` [N-(2-(Dimethylamino)ethyl)-6-(4-(3-(piperidin-1-yl)propylamino)-1,6-naphthyridin-2-yl)-1H-indole-2-carboxamide] came in with an IC50 of 1 to 20 µM.

As for `CN(C)CCNC(=O)c1cc2cc(-c3cc(NCCCN4CCCCC4)c4cnccc4n3)ccc2n1C` [N-(2-(dimethylamino)ethyl)-1-methyl-5-(4-((3-(piperidin-1-yl)propyl)amino)-1,6-naphthyridin-2-yl)-1H-indole-2-carboxamide], the half-inhibitory concentration (IC50) is ≤ 1 µM.

Regarding `CN(C)CCNC(=O)c1ccc(-c2cc(NCCCN3CCCCC3)c3cnccc3n2)cc1` [N-(2-(dimethylamino)ethyl)-4-(4-((3-(piperidin-1-yl)propyl)amino)-1,6-naphthyridin-2-yl)benzamide], the IC50 was ≤ 1 µM.

As to `CN(C)CCNC(=O)c1nc2cc(-c3cc(NCCCN4CCCCC4)c4cnccc4n3)ccc2[nH]1` [N-(2-(dimethylamino)ethyl)-5-(4-(3-(piperidin-1-yl)propylamino)-1,6-naphthyridin-2-yl)-1H-benzo[d]imidazole-2-carboxamide], the IC50 was ≤ 1 µM.

With `CN(C)CCNC(=O)c1nc2cc(-c3cc(Nc4ccc(CN5CCCC5)cc4)c4cnccc4n3)ccc2[nH]1` [N-(2-(dimethylamino)ethyl)-5-(4-((4-(pyrrolidin-1-ylmethyl)phenyl)amino)-1,6-naphthyridin-2-yl)-1H-benzo[d]imidazole-2-carboxamide], the IC50 is ≤ 1 µM.

In the case of `CN(C)CCNC(=O)c1cc2ccc(-c3cc(NCCCN4CCCCC4)c4cnccc4n3)cc2s1` [N-(2-(dimethylamino)ethyl)-6-(4-(3-(piperidin-1-yl)propylamino)-1,6-naphthyridin-2-yl)benzo[b]thiophene-2-carboxamide], the half-maximal inhibitory concentration (IC50) is 1 to 20 µM.

As to `CN1CCN(CCCNC(=O)c2nc3cc(-c4cc(NCCCN5CCCCC5)c5cnccc5n4)ccc3[nH]2)CC1` [N-(3-(4-methylpiperazin-1-yl)propyl)-5-(4-((3-(piperidin-1-yl)propyl)amino)-1,6-naphthyridin-2-yl)-1H-benzo[d]imidazole-2-carboxamide], the IC50 is ≤ 1 µM.

As to `CN1CCN(CCCNC(=O)c2nc3cc(-c4cc(Nc5ccc(CN6CCCC6)cc5)c5cnccc5n4)ccc3[nH]2)CC1` [N-(3-(4-methylpiperazin-1-yl)propyl)-5-(4-((4-(pyrrolidin-1-ylmethyl)phenyl)amino)-1,6-naphthyridin-2-yl)-1H-benzo[d]imidazole-2-carboxamide], the IC50 was ≥ 20 µM.

In turn, `O=C(NCCCN1CCCCC1)c1ccc(-c2cc(NCc3ccncc3)c3cnccc3n2)cc1` [N-(3-(Piperidin-1-yl)propyl)-4-(4-((pyridin-4-ylmethyl)amino)-1,6-naphthyridin-2-yl)benzamide] yielded an IC50 of 1 to 20 µM.
